The numbers were not newly measured in US20080319079A1 (priority 2006, published 2008), which cites them from elsewhere.

In data set [1] the test system is patients with reversible obstructive respiratory diseases. Particulars: for duration of action (bronchodilation): patients with asthma and related respiratory illnesses, inhalation.
For data set [2] the following is noted: repeated doses administered frequently up to a maximum dose of 80 μg per day.

As for `OCc1cc(C(O)CNCCCCCCOCCCCc2ccccc2)ccc1O` (centres unmarked) [Salmeterol], the onset of action entry in data set [1] (after inhalation) is given as “approximately thirty”. Moreover, in data set [1], the “duration of action (bronchodilation)” value was “twelve”.

For `COc1ccc(CC(C)NCC(O)c2ccc(O)c(NC=O)c2)cc1` (centres unmarked) [formoterol, N-[2-hydroxy-5-(1-hydroxy-2-((2-(4-methoxyphenyl)-1-methylethyl)-amino)-ethyl)phenyl]formamide], the side effects entry in data set [2] is listed as “no more side effects than short acting bronchodilators”.

Take `CC(C)(C)NCC(O)c1ccc(O)c(CO)c1` (centres unmarked) [salbutamol]: the “duration of action (bronchodilation)” value in data set [1] is “four to six”.

Consider `CC(C)(C)NCC(O)c1cc(O)cc(O)c1` (centres unmarked) [terbutaline], for which, in data set [1], the “duration of action (bronchodilation)” value is “four to six”.
